Among the data in US10968225B2, “Compounds and compositions for the treatment of cystic fibrosis” (Fondazione Istituto Italiano Di Tecnologia, priority 2017, dated 2021) are EC50 values, retold here.

For orientation: EC50 means the concentration at which the effect is half-maximal.

The target of the first test is T1, mutant CFTR (Homo sapiens, UniProt P13569, DEL508-508).
T1 construct: expressed in transfected cells
T1 sequence (P13569 with tags, fused parts or gaps DEL508-508): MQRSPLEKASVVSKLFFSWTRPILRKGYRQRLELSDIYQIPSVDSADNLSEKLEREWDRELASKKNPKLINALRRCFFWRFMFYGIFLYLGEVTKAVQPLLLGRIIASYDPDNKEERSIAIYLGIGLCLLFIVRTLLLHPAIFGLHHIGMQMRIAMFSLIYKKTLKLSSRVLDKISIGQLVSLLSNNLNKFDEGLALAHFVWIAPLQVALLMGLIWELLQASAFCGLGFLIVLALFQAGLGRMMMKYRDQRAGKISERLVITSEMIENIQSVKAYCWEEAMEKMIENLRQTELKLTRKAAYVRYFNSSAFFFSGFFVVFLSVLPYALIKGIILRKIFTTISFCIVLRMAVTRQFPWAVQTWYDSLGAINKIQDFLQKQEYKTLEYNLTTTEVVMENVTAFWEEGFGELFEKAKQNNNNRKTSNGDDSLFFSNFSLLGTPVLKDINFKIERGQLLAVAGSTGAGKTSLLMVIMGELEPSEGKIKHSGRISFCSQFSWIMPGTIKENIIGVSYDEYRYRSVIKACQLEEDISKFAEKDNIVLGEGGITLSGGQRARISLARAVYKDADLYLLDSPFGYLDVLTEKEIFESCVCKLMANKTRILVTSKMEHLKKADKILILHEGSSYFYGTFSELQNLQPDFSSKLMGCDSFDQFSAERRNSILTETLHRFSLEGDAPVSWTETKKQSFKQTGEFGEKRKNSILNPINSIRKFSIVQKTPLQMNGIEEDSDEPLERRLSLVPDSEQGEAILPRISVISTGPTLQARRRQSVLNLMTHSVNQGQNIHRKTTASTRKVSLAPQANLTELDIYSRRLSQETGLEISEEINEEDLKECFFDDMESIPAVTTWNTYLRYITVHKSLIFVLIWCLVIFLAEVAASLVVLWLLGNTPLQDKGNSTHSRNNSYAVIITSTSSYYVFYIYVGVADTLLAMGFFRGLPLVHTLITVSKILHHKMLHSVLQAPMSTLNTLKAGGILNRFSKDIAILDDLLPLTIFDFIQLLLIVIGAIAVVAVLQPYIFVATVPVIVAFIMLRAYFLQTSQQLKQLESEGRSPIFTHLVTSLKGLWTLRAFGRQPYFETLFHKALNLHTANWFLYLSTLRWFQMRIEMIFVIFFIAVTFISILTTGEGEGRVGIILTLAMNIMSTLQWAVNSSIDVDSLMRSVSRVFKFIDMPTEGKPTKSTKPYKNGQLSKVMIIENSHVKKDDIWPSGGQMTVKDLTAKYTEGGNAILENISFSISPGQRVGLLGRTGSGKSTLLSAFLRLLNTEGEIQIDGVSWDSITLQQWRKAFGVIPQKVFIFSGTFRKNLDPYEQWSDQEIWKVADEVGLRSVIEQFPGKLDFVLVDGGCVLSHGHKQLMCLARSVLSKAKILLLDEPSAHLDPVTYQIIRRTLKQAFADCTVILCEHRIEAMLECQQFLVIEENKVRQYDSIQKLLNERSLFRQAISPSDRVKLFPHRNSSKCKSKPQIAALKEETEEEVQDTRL
Put plainly: Fluorescence (HS-YFP) assay for CFTR activity, corrector assay. It counts as cell-based. The conditions noted are these: CFBE41o- and FRT cells with stable expression of mutant CFTR, read-out: activity (EC50).
Take `COc1ccc(N(C)C(=O)c2cccc(-n3nc(C(F)(F)F)c4c3C(Oc3ccc(C(=O)O)cc3)CCC4)c2)cc1OC` (racemic) [Compound 311, 4-[[1-[3-[(3,4-Dimethoxyphenyl)-methyl-carbamoyl]phenyl]-3-(trifluoromethyl)-4,5,6,7-tetrahydroindazol-7-yl]oxy]benzoic acid]: the half-maximal effective concentration (EC50) is above 2000 nM. Same read-out and setting: then `CC(C)Oc1cncc(N(C)C(=O)c2cccc(-n3nc(C(F)(F)F)c4c3C(Oc3ccc(C(=O)O)cc3)CCC4)c2)c1` (racemic) [Compound 312, 4-[[1-[3-[(5-Isopropoxy-3-pyridyl)-methyl-carbamoyl]phenyl]-3-(trifluoromethyl)-4,5,6,7-tetrahydroindazol-7-yl]oxy]benzoic acid], with 1000 to 2000 nM; and `CN(C(=O)c1cccc(-n2nc(C(F)(F)F)c3c2C(Oc2ccc(C(=O)O)cc2)CCC3)c1)c1cnc(OC2CC2)nc1` (racemic) [Compound 313, 4-[[1-[3-[[2-(Cyclopropoxy)pyrimidin-5-yl]-methyl-carbamoyl]phenyl]-3-(trifluoromethyl)-4,5,6,7-tetrahydroindazol-7-yl]oxy]benzoic acid], with 1000 to 2000 nM; and `CN(C(=O)c1cccc(-n2nc(C(F)(F)F)c3c2C(Oc2ccc(C(=O)O)cc2)CCC3)c1)c1ccc(OC(F)F)nc1` (racemic) [Compound 314, 4-[[1-[3-[[6-(Difluoromethoxy)-3-pyridyl]-methyl-carbamoyl]phenyl]-3-(trifluoromethyl)-4,5,6,7-tetrahydroindazol-7-yl]oxy]benzoic acid], with below 1000 nM. Consider `CN(C(=O)c1cccc(-n2nc(C(F)(F)F)c3c2C(Oc2ccc(C(=O)O)cc2)CCC3)c1)c1ccnc(C(F)(F)F)c1` (racemic) [Compound 315, 4-[[1-[3-[Methyl-[2-(trifluoromethyl)-4-pyridyl]carbamoyl]phenyl]-3-(trifluoromethyl)-4,5,6,7-tetrahydroindazol-7-yl]oxy]benzoic acid], for which the 50% effective concentration (EC50) lay in the range of 1000 to 2000 nM. With `COc1cc(N(C)C(=O)c2cccc(-n3nc(C(F)(F)F)c4c3C(Oc3ccc(C(=O)O)cc3)CCC4)c2)ccn1` (racemic) [Compound 316, 4-[[1-[3-[(2-methoxy-4-pyridyl)-methyl-carbamoyl]phenyl]-3-(trifluoromethyl)-4,5,6,7-tetrahydroindazol-7-yl]oxy]benzoic acid], the EC50 lay in the range of 1000 to 2000 nM. Still for that read-out and setting: then `CC(C)Oc1cc(N(C)C(=O)c2cccc(-n3nc(C(F)(F)F)c4c3C(Oc3ccc(C(=O)O)cc3)CCC4)c2)ccn1` (racemic) [Compound 317, 4-[[1-[3-[(2-Isopropoxy-4-pyridyl)-methyl-carbamoyl]phenyl]-3-(trifluoromethyl)-4,5,6,7-tetrahydroindazol-7-yl]oxy]benzoic acid], with 1000 to 2000 nM; and `CN(C(=O)c1cccc(-n2nc(C(F)(F)F)c3c2C(Oc2ccc(CC(=O)O)cc2)CCC3)c1)c1ccc2c(c1)OC(F)(F)O2` (racemic) [Compound 318, 2-[4-[[1-[3-[(2,2-Difluoro-1,3-benzodioxol-5-yl)-methyl-carbamoyl]phenyl]-3-(trifluoromethyl)-4,5,6,7-tetrahydroindazol-7-yl]oxy]phenyl]acetic acid], with below 1000 nM; and `CN(C(=O)c1cccc(-n2nc(C(F)(F)F)c3c2C[C@H]2CC[C@@H]3N2)c1)c1ccc2c(c1)OCO2` (single isomer, unassigned) [Compound 048, (4R,7S)- or (4S,7R)—N-(Benzo[d][1,3]dioxol-5-yl)-N-methyl-3-(3-(trifluoromethyl)-5,6,7,8-tetrahydro-4,7-epiminocyclohepta [c]pyrazol-1(4H)-yl)benzamide], with below 1000 nM. The same measure, in the same setting: then `CN(C(=O)c1cccc(-n2nc(C(F)(F)F)c3c2C[C@H]2CC[C@@H]3N2C)c1)c1ccc2c(c1)OCO2` (single isomer, unassigned) [Compound 050, (4R,7S)- or (4S,7R)—N-(Benzo[d][1,3]dioxol-5-yl)-N-methyl-3-(9-methyl-3-(trifluoromethyl)-5,6,7,8-tetrahydro-4,7-epiminocyclohepta[c]pyrazol-1(4H)-yl)benzamide], with below 1000 nM; and `CN(C(=O)c1cccc(-n2nc(C(F)(F)F)c3c2C[C@H]2CC[C@@H]3N2C(=O)OC(C)(C)C)c1)c1ccc2c(c1)OCO2` (single isomer, unassigned) [Compound 052, (4R,7S)- or (4S,7R)-tert-Butyl-1-(3-(benzo[d][1,3]dioxol-5-yl(methyl)carbamoyl)phenyl)-3-(trifluoromethyl)-1,4,5,6,7,8-hexahydro-4,7-epiminocyclohepta[c]pyrazole-9-carboxylate], with below 1000 nM. On to `CN(C(=O)c1cccc(-n2nc(C(F)(F)F)c3c2C[C@@H]2CC[C@H]3N2C(=O)OC(C)(C)C)c1)c1ccc2c(c1)OCO2` (single isomer, unassigned) [Compound 053, (4S,7R)- or (4R,7S)-tert-Butyl-1-(3-(benzo[d][1,3]dioxol-5-yl(methyl)carbamoyl)phenyl)-3-(trifluoromethyl)-1,4,5,6,7,8-hexahydro-4,7-epiminocyclohepta[c]pyrazole-9-carboxylate], for which the EC50 was below 1000 nM. Same read-out and setting: as for `CN(C(=O)c1cccc(-n2nc(C(F)(F)F)c3c2C[C@H]2CC[C@@H]3N2C(=O)C(C)(C)C)c1)c1ccc2c(c1)OCO2` (single isomer, unassigned) [Compound 087, (4R,7S)- or (4S,7R)—N-(Benzo[d][1,3]dioxol-5-yl)-N-methyl-3-[(9-pivaloyl-3-(trifluoromethyl)-5,6,7,8-tetrahydro-4,7-epiminocyclohepta[c]pyrazol-1(4H)-yl)]benzamide], the figure is below 1000 nM. In the case of `CN(C(=O)c1cccc(-n2nc(C(F)(F)F)c3c2C[C@@H]2CC[C@H]3N2C(=O)C(C)(C)C)c1)c1ccc2c(c1)OCO2` (single isomer, unassigned) [Compound 088, (4R,7S)- or (4S,7R)—N-(Benzo[d][1,3]dioxol-5-yl)-N-methyl-3-[(9-pivaloyl-3-(trifluoromethyl)-5,6,7,8-tetrahydro-4,7-epiminocyclohepta[c]pyrazol-1(4H)-yl)]benzamide], the half-maximal effective concentration (EC50) was below 1000 nM. Same read-out and setting: as for `Cc1noc(C)c1S(=O)(=O)N1[C@@H]2CC[C@H]1c1c(C(F)(F)F)nn(-c3cccc(C(=O)N(C)c4ccc5c(c4)OCO5)c3)c1C2` (single isomer, unassigned) [Compound 128, (4S,7R)- or (4R,7S)—N-(Benzo[d][1,3]dioxol-5-yl)-3-(9-((3,5-dimethylisoxazol-4-yl)sulfonyl)-3-(trifluoromethyl)-5,6,7,8-tetrahydro-4,7-epiminocyclohepta[c]pyrazol-1(4H)-yl)-N-methylbenzamide], the figure is below 1000 nM.

Still in this test, the particulars now being: activity (EC50), CFBE41o- and FRT cells with stable expression of mutant CFTR.
`CN(C(=O)c1cccc(-n2nc(C(F)(F)F)c3c2C[C@@H]2CC[C@H]3N2)c1)c1ccc2c(c1)OCO2` (single isomer, unassigned) [Compound 049, (4S,7R)- or (4R,7S)—N-(Benzo[d][1,3]dioxol-5-yl)-N-methyl-3-(3-(trifluoromethyl)-5,6,7,8-tetrahydro-4,7-epiminocyclohepta [c]pyrazol-1(4H)-yl)benzamide] registered a 50% effective concentration (EC50) of 1000 to 2000 nM. The compound `CN(C(=O)c1cccc(-n2nc(C(F)(F)F)c3c2C[C@@H]2CC[C@H]3N2C)c1)c1ccc2c(c1)OCO2` (single isomer, unassigned) [Compound 051, (4S,7R)- or (4R,7S)—N-(Benzo[d][1,3]dioxol-5-yl)-N-methyl-3-(9-methyl-3-(trifluoromethyl)-5,6,7,8-tetrahydro-4,7-epiminocyclohepta[c]pyrazol-1(4H)-yl)benzamide] came in with an EC50 of 1000 to 2000 nM.
